Test results reported in the NIST ThermoML archive (doi:10.1021/acs.jced.7b00995).

Experiments:
[1] = 313.15 K, Liquid, Vibrating tube method
[2] = xn = mol fraction of the nth substance listed; details: Liquid, Vibrating tube method

CCCCCCCCCCCCCCC [pentadecane]
[1]
Details	mass density [kg/m3]
100 kPa	752.2
6910 kPa	757.8
20790 kPa	766.9
34670 kPa	776.1
55490 kPa	787.5
76930 kPa	797.3

CCCCCCCCCCCCCCC [pentadecane] + O=C=O
mass density [kg/m3], [2]
Details	x2 = 0.376	x2 = 0.562	x2 = 0.757
313.15 K, 6.36 kPa	–	779.4	–
313.15 K, 6.91 kPa	770	–	–
313.15 K, 8.8 kPa	–	–	798.3
313.15 K, 11.29 kPa	–	–	804.2
313.15 K, 13.85 kPa	–	–	810.2
313.15 K, 20.79 kPa	784	796.8	828.1
313.15 K, 34.67 kPa	795.8	808.8	843.2
313.15 K, 55.49 kPa	809	829	867.8
313.15 K, 76.31 kPa	825.4	841.5	885.9
363.15 K, 6.94 kPa	725.3	–	–
363.15 K, 10.73 kPa	–	730.3	–
363.15 K, 17.13 kPa	–	–	738.8
363.15 K, 20.82 kPa	744.5	745.5	749.2
363.15 K, 34.7 kPa	754.3	768.8	780
363.15 K, 55.52 kPa	775.6	784.7	812.3
363.15 K, 76.34 kPa	787	800.8	831.7
410.15 K, 13.9 kPa	–	686.5	–
410.15 K, 13.91 kPa	693.8	–	–
410.15 K, 20.85 kPa	702.6	701.8	–
410.15 K, 21.95 kPa	–	–	682.7
410.15 K, 27.79 kPa	–	–	702
410.15 K, 34.73 kPa	723.3	724.9	723.5
410.15 K, 55.55 kPa	742.3	749.5	763.8
410.15 K, 76.37 kPa	757.3	769.3	796.1
